Measurements from ChEMBL document CHEMBL1201862, “PubChem BioAssay data set” (2004).
One block for each molecule: values may come before it. The source made the active and inactive calls.

Key:
[1] = nonselective StAR promoter luciferase inhibitors – cell-based, luminescence, luciferase reporter, counter-screen for LRH-1 inverse agonist project, dose response (AID 651969); assay type: functional
[2] = target: Nuclear receptor subfamily 5 group A member 2 (Homo sapiens, UniProt O00482); assay type: functional, cell-based;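 further: HEK293T cells transfected with LRH-1 and a StAR promoter luciferase reporter; potency for inhibitors that lower LRH-1 driven reporter light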
Steroidogenic factor 1 = Steroidogenic factor 1 (Homo sapiens, UniProt Q13285); experiment: Counterscreen for inverse agonists of the liver receptor homolog-1 (LRH-1; NR5A2): Luminescence-based cell-based high throughput dose response assay to identify inverse agonists of the Steroidogenic Factor 1 Nuclear Receptor (SF1; NR5A1).; assay type: functional
[3] = target: T1, Kappa-type opioid receptor (Homo sapiens, UniProt P41145); assay type: functional
Mu-type opioid receptor = Mu-type opioid receptor (Homo sapiens, UniProt P35372); experiment: HTS Image-Based Screen for Agonists of the MOR Receptor. [Related pubchem assays (depositor defined):AID1777, AID1785, AID1786, AID2133]; assay type: functional;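 further: imaging of beta-arrestin GFP recruitment into spots after receptor activation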
[4] = target: T1, Kappa-type opioid receptor; assay type: functional; remark: listed apart in the source
Beta-galactosidase [5] = target: T2, Beta-galactosidase (Escherichia coli, UniProt Q8VNN2); experiment: detection-enzyme interference by beta-gal modulators – biochemical, E. coli enzyme, set 3, artefact control for CCR6 antagonist project, dose response (AID 504712); assay type: functional
[6] = target: Heat shock protein HSP 90-alpha (Homo sapiens, UniProt P07900); assay type: functional, organism-based
[7] = target: T3, Delta-type opioid receptor (Homo sapiens, UniProt P41143); experiment: HTS Image-Based Screen for Agonists of the DOR Receptor. [Related pubchem assays (depositor defined):AID1777, AID1786, AID2133]; assay type: functional
Beta-galactosidase [8] = target: T2, Beta-galactosidase; assay type: functional
[9] = target: T3, Delta-type opioid receptor; experiment: HTS Image-Based Screen for Antagonists of the DOR Receptor. [Related pubchem assays (depositor defined):AID1777, AID1785, AID1786, AID2133]; assay type: functional
[10] = cAMP pathway inhibition in counterscreen cell line – TR-FRET cAMP detection, counter-screen for MC4R biased antagonist project, dose response (AID 602305); assay type: functional, cell-based;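 further: U2OS cells stimulated with forskolin near its EC80 as the cAMP inducer; potency is for inhibition of forskolin-stimulated cAMP signaling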
[11] = Trypanosoma cruzi growth suppression in host cells – NIH3T3 host cells, beta-gal luminescence, confirmation (AID 2044); assay type: functional, cell-based;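 further: intracellular parasites grown in NIH/3T3 mouse fibroblasts as host cells; luminescent beta-galactosidase reporter signal from transgenic T. cruzi replicating inside host cells; inhibitors lower the luminescence signal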
[12] = target: Glucose-6-phosphate 1-dehydrogenase (Homo sapiens, UniProt P11413); experiment: inhibition of Homo sapiens G6PD, dose series – biochemical, fluorescence, selectivity assay for P. falciparum G6PD inhibitor project, dose response (AID 504792); assay type: functional
[13] = NIH3T3 cell viability loss – ATP luminescence, mouse fibroblasts, counter-screen, dose response (AID 2010); assay type: functional, cell-based;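 further: cells exposed to compound for about 90 hours before reading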
Melanocortin receptor 4 = Melanocortin receptor 4 (Homo sapiens, UniProt P32245); experiment: inhibitors of MC4R cAMP signaling – cell-based, TR-FRET, biased antagonists, dose response (AID 602298); assay type: functional;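 further: antagonist potency against agonist-stimulated cAMP production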
[14] = target: T4, Microphthalmia-associated transcription factor (Homo sapiens, UniProt O75030); experiment: reducers of TRPM1 reporter luminescence, concentration series – cell-based, SK-MEL-5, cherry-picked, set 3, MITF inhibitor project, dose response (AID 493073); assay type: functional;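 further: SK-MEL-5 melanoma cells with luciferase driven by the MITF target TRPM1 promoter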
T4 sequence (O75030 whole entry): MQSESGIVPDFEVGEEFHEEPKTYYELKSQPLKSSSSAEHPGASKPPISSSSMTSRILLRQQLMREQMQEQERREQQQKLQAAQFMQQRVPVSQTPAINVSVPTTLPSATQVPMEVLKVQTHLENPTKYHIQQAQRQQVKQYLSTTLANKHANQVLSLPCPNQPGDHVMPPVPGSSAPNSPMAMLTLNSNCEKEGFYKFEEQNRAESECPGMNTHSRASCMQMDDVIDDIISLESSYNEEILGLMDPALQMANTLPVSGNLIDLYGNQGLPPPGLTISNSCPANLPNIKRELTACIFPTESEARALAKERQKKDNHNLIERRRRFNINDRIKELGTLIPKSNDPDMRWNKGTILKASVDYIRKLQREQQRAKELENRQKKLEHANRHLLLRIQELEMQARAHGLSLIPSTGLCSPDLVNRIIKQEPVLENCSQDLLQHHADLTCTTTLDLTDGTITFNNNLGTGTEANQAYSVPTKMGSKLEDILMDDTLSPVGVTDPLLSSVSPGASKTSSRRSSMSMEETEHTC

[15] = target: T5, Short transient receptor potential channel 4 (Mus musculus, UniProt Q9QUQ5); experiment: block of DAMGO-driven TRPC4 calcium entry – cell-based, HEK293 TRPC4/mu-opioid, Fluo-4 calcium, dose response (AID 434942); assay type: functional;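 further: potency of inhibitors blocking the TRPC4 calcium response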
T5 sequence (Q9QUQ5 whole entry): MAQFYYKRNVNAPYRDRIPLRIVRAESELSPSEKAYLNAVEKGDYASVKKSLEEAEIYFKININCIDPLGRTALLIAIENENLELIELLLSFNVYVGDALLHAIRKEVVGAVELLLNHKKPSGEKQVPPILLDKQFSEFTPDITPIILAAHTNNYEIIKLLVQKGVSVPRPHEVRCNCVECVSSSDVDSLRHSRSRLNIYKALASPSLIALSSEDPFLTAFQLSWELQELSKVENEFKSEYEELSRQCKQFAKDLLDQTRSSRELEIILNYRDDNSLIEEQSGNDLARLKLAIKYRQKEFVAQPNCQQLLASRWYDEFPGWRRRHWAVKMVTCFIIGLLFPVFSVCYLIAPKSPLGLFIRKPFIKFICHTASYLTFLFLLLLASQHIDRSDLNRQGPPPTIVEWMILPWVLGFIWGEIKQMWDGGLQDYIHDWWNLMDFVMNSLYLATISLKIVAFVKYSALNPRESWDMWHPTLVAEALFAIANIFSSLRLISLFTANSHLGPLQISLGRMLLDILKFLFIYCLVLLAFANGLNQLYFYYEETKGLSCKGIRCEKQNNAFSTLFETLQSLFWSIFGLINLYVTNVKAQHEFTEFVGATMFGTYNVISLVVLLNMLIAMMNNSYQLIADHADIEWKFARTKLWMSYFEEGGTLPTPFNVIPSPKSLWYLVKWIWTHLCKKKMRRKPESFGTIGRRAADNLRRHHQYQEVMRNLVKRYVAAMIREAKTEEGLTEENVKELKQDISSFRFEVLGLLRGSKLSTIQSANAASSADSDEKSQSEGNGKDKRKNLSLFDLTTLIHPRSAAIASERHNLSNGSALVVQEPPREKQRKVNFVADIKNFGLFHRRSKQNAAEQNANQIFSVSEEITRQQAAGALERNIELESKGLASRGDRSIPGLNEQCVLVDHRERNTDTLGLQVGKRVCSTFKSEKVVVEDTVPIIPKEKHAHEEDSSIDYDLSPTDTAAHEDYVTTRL

[16] = target: T6, Small ubiquitin-related modifier 1 (Homo sapiens, UniProt P63165); experiment: SUMO1 protein interaction blockers, potency – biochemical, fluorescence polarization, uHTS hits, dose response (AID 624382); assay type: functional; conditions: read-out: IC50_Mean
[17] = target: T6, Small ubiquitin-related modifier 1; experiment: SUMO1 protein-protein binding blockers, potency – biochemical, FRET, dose response (AID 624383); assay type: functional; conditions: read-out: IC50_Mean
Protein Wnt-3a = Protein Wnt-3a (Mus musculus, UniProt P27467); experiment: antagonism of Wnt3a pathway luciferase reporter – Wnt-LIGHT cells, luminescence, selectivity assay for Gli-SUFU antagonist project, dose response (AID 651570); assay type: functional; conditions: read-out: IC50_Mean;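 further: Wnt-LIGHT reporter cells stimulated with conditioned medium from Wnt3a-producing cells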
Cytochrome P450 2D6 = Cytochrome P450 2D6 (Homo sapiens, UniProt P10635);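 further: CYP2D6 member of a cytochrome P450 panel assay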
Cytochrome P450 3A4 = Cytochrome P450 3A4 (Homo sapiens, UniProt P08684);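 further: CYP3A4 tested as one member of a cytochrome P450 panel screen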
[18] = target: Voltage-dependent T-type calcium channel subunit alpha-1H (Homo sapiens, UniProt O95180); assay type: functional;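 further: channel activity triggered by adding a high calcium stimulation buffer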
[19] = inhibition of ARNT PAS-B/TACC3 complex formation – biochemical, AlphaScreen, cherry-picked samples, confirmation (AID 651703); assay type: functional, Homo sapiens;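 further: His-tagged ARNT PAS-B domain paired with GST-TACC3 E629A dimer coactivator fragment; potency of inhibitors that break up the complex and lower AlphaScreen signal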
[20] = target: T7, Sentrin-specific protease 1 (Homo sapiens, UniProt Q9P0U3); experiment: SENP1 catalytic domain blockers, concentration series – biochemical, kinetic FRET, dose response (AID 651697); assay type: functional; conditions: read-out: IC50_Mean
[21] = target: T7, Sentrin-specific protease 1; experiment: Dose response confirmation of small molecule inhibitors of the catalytic domain of the SUMO protease, SENP1 in a FRET assay.; assay type: functional; conditions: read-out: IC50_Mean

T2 sequence (Q8VNN2 whole entry): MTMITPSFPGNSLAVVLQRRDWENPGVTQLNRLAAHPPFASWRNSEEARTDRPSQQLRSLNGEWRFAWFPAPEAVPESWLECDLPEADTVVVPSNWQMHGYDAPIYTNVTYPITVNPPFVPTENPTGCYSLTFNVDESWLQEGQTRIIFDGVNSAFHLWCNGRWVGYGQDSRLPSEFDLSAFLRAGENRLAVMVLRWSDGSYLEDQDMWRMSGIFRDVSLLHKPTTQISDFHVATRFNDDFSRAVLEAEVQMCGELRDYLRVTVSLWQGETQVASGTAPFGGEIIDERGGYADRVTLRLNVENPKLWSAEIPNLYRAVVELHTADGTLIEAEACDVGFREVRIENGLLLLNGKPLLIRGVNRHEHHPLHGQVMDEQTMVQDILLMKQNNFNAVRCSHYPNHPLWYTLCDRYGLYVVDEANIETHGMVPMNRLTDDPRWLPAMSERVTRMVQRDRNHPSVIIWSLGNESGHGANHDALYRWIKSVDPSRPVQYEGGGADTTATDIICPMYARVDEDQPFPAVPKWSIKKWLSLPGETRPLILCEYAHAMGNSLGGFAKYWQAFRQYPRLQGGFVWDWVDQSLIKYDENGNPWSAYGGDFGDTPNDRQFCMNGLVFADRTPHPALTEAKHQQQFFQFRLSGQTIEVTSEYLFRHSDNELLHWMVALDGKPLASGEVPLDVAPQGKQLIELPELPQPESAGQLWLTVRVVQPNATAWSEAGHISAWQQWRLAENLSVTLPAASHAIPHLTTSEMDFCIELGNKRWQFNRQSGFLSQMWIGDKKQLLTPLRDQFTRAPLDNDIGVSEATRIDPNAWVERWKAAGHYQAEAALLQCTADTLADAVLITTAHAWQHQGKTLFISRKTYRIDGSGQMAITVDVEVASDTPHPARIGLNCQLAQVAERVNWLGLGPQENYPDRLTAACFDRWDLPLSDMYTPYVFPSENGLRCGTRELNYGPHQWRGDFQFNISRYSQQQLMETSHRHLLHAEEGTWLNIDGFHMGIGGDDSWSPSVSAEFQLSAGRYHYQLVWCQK
T6 sequence (P63165 whole entry): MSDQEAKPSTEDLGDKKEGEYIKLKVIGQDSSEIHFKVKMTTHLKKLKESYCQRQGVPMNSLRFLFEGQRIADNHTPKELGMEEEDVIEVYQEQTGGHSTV
T1 sequence (P41145 whole entry): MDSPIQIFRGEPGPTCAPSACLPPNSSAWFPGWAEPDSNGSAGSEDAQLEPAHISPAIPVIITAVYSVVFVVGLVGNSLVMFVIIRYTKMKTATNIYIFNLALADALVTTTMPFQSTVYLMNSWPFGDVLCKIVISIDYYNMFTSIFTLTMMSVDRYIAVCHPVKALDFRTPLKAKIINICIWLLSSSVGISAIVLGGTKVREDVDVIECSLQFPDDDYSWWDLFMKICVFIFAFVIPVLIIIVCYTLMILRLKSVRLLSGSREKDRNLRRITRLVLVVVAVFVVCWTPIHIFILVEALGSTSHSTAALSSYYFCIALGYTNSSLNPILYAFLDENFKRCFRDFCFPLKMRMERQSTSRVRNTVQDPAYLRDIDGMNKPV
T3 sequence (P41143 whole entry): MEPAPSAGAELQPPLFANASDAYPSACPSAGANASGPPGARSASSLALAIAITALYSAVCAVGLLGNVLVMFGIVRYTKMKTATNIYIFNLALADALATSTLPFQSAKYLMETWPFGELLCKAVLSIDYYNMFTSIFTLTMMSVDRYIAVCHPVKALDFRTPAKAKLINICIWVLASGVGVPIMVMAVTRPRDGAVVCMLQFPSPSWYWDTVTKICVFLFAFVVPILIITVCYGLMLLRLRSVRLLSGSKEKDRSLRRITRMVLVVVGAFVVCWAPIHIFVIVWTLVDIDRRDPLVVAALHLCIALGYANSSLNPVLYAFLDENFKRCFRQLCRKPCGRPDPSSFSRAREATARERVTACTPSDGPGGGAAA
T7 sequence (Q9P0U3 whole entry, the tested form may be a part): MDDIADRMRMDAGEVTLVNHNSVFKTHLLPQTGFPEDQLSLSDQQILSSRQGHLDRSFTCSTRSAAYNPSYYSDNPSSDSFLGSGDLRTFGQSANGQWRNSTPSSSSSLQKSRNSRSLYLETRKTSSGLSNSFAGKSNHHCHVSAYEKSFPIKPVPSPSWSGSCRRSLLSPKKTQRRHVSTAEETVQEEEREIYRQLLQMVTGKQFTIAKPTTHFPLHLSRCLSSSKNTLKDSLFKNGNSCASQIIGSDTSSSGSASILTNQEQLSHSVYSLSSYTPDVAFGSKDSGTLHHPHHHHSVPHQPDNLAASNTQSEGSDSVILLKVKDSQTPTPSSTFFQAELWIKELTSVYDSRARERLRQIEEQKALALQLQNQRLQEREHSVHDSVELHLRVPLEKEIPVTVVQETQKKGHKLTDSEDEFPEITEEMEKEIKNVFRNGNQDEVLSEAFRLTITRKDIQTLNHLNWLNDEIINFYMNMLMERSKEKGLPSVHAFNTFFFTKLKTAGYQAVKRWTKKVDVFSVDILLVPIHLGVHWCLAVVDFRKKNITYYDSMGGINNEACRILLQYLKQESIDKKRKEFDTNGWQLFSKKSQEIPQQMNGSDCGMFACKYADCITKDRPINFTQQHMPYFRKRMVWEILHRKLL
Steroidogenic factor 1, sequence (Q13285 whole entry): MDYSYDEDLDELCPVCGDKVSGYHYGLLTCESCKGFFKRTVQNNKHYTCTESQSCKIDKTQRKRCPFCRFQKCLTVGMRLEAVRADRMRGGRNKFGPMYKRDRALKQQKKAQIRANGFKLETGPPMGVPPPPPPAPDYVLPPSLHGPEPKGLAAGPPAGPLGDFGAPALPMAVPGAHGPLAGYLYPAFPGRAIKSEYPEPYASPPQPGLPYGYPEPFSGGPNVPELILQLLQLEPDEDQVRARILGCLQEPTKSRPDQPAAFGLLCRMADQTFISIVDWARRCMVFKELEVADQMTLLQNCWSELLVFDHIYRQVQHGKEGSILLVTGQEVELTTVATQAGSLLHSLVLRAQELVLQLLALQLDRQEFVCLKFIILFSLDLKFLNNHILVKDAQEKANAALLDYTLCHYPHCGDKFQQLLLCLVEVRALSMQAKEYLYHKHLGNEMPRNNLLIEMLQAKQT
Mu-type opioid receptor, sequence (P35372 whole entry): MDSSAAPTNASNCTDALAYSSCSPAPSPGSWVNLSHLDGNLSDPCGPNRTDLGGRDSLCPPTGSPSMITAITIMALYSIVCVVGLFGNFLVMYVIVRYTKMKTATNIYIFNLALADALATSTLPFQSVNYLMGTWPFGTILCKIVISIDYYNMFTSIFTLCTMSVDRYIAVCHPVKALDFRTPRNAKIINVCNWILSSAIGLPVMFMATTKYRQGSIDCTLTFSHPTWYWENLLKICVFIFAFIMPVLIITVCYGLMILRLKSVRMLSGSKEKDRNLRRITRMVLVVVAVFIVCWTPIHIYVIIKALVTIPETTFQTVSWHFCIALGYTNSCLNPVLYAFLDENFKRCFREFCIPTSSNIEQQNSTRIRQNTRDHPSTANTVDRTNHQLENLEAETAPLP
Protein Wnt-3a, sequence (P27467 whole entry): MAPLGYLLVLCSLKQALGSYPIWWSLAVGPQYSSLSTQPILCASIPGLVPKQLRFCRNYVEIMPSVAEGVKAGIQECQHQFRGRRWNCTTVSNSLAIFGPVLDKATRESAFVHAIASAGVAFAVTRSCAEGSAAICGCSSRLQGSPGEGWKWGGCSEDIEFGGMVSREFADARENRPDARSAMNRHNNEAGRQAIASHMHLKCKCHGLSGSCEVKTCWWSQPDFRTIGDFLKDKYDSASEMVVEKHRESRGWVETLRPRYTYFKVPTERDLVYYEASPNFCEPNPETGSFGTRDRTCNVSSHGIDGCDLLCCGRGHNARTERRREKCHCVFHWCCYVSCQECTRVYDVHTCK
Cytochrome P450 3A4, sequence (P08684 whole entry): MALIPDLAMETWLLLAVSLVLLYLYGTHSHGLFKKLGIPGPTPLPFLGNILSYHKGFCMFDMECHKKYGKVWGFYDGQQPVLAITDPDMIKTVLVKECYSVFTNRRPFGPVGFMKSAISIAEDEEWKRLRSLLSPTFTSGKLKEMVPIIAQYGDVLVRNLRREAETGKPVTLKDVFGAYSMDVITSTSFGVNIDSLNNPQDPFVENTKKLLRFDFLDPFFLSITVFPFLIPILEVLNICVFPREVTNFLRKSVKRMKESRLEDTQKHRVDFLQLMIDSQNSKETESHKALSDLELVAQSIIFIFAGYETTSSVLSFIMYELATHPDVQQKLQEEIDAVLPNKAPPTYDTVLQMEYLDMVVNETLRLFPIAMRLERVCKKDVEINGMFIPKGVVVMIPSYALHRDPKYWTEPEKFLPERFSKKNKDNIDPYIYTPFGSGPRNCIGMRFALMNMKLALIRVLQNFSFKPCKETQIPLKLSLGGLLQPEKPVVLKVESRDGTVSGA
Nuclear receptor subfamily 5 group A member 2, sequence (O00482 whole entry): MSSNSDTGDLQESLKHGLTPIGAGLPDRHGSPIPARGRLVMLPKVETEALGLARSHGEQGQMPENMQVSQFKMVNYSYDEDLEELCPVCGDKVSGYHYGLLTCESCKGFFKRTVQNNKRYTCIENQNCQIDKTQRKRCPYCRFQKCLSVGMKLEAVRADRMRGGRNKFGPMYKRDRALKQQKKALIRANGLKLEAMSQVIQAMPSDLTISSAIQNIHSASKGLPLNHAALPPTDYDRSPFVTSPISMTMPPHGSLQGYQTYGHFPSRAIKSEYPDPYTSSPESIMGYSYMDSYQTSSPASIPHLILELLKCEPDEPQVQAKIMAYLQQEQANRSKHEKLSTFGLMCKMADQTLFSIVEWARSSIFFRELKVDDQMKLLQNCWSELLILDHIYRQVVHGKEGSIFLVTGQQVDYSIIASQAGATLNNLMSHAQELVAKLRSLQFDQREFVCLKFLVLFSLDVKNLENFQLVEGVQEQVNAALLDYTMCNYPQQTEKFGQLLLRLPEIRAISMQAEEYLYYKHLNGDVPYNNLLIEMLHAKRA

SMILES: COc1cc(C(=O)Nc2ccccc2N2CCN(S(C)(=O)=O)CC2)cc(OC)c1OC
IC50 [1]: 35.9 µM (inactive)
IC50 [2]: 14.6 µM (inactive)
IC50 (Steroidogenic factor 1): 7.65 µM (active)

SMILES: Cc1ccc(NC(=O)c2cc(N3C(=O)C=CC3=O)ccc2N2CCOCC2)cc1
IC50 [3]: 23.7 µM
EC50 (Mu-type opioid receptor): > 32 µM (inactive)
IC50 [4]: 8.25 µM (active)
IC50 (Beta-galactosidase [5]): > 66.6 µM (inactive)
AC50 [6]: 0.591 µM (active)
EC50 [7]: > 32 µM (inactive)
EC50 (Beta-galactosidase [8]): > 31.5 µM (inactive)
IC50 [9]: > 32 µM (inactive)
IC50 [10]: 39 µM (inactive)
EC50 [11]: 2.85 µM (active)
IC50 [12]: 53 µM (inactive)
EC50 [13]: 6.01 µM (active)
IC50 (Melanocortin receptor 4): 11.9 µM (inactive)
AC50 [14]: 11.6 µM (active)
EC50 [15]: 5.31 µM (active)

SMILES: CC(=O)c1sc(Nc2nc3cc4c(cc3s2)OCO4)nc1C
IC50 [16]: > 66.6 µM (inactive)
IC50 [17]: 11.1 µM (active)

SMILES: Cc1nc2nonc2c2nccc(O)c12
IC50 [20]: 8.83 µM (active)
IC50 [21]: 8.04 µM (active)

Continued, in another order:

IC50 (Protein Wnt-3a): 5.78 µM (active)
AC50 (Cytochrome P450 2D6): 11.2 µM (inconclusive)
AC50 (Cytochrome P450 3A4): inconclusive
SMILES: FC(F)(F)c1ccc(N2CCN(c3cc(-c4ccccc4)nc4ncnn34)CC2)nc1

EC50 [18]: 5.07 µM (active)
SMILES: COc1ccc(C(c2nnnn2C2CCCC2)N2CCc3ccccc3C2)cc1OC (configuration not stated)
AC50 [19]: 132 µM (active)
